Assay results published in ChEMBL document CHEMBL2034899, “5-Arylbenzothiadiazine Type Compounds as Positive Allosteric Modulators of AMPA/Kainate Receptors” (ACS Med Chem Lett, 2012).
Active and inactive are the calls of the source. No cut-off for these calls is given here.

How the values were obtained:
[1] = test system: Cerebral cortex neuron; assay: Positive allosteric modulation at AMPA receptor in primary cortical neurons assessed as potentiation of kainate-induced current at 10 uM by patch clamp analysis; assay type: cell-based
[2] = test system: Cerebral cortex neuron; assay: Positive allosteric modulation at AMPA receptor in primary cortical neurons assessed as potentiation of kainate-induced current at 100 uM by patch clamp analysis
[3] = Drug uptake in mouse nucleus accumbens assessed as 7-chloro-5-(3-furyl)-3- methyl-4H-1,2,4-benzothiadiazine 1,1-dioxide level at 20 mg/kg, ip measured after 140 mins; assay type: ADME, organism-based; design: dose 20 mg/kg, route intraperitoneal; settings: in vivo
[4] = Drug uptake in mouse nucleus accumbens assessed as 7-chloro-5-(3-furyl)-3- methyl-4H-1,2,4-benzothiadiazine 1,1-dioxide level at 20 mg/kg, ip measured after 2 hrs; assay type: ADME, organism-based; design: dose 20 mg/kg, route intraperitoneal; settings: in vivo
[5] = Drug uptake in mouse nucleus accumbens assessed as 7-chloro-5-(3-furyl)-3- methyl-4H-1,2,4-benzothiadiazine 1,1-dioxide level at 20 mg/kg, ip measured after 1 hr; assay type: ADME, organism-based; design: dose 20 mg/kg, route intraperitoneal; settings: in vivo, read-out: Drug uptake
[6] = Drug uptake in mouse nucleus accumbens at 20 mg/kg, ip measured after 2 hrs; assay type: ADME, organism-based; design: dose 20 mg/kg, route intraperitoneal; settings: in vivo
[7] = Drug uptake in mouse nucleus accumbens at 20 mg/kg, ip measured after 40 mins; assay type: ADME, organism-based; design: dose 20 mg/kg, route intraperitoneal; settings: read-out: Drug uptake
[8] = Positive allosteric modulation at AMPA receptor in primary cortical neurons assessed as potentiation of kainate-induced current by patch clamp analysis; assay type: cell-based; settings: Cerebral cortex neuron

Row | Activity [1] [%] | Activity [2] | SMILES | further results
1 | < 10 | inactive | CCC1Nc2c(-c3ccc(C(=O)O)cc3)cc(Cl)cc2S(=O)(=O)N1 (stereo not given) | 
2 | 53 | inactive | CC1CN2c3c1cc(Cl)cc3S(=O)(=O)NC2C (racemic) | 
3 | < 10 | inactive | CCC1Nc2c(-c3ccco3)cc(Cl)cc2S(=O)(=O)N1 (stereo not given) | 
4 | < 10 | inactive | CC1Nc2c(-c3cccc(N)c3)cc(Cl)cc2S(=O)(=O)N1 (stereo not given) | 
5 | < 10 | inactive | O=C(O)c1ccc(-c2cc(Cl)cc3c2NCNS3(=O)=O)cc1 | 
6 | < 10 | inactive | CC1Nc2c(-c3ccc(C(=O)O)cc3)cc(Cl)cc2S(=O)(=O)N1 (stereo not given) | 
7 | 20 | inactive | O=S1(=O)NCNc2c(-c3ccco3)cc(Cl)cc21 | 
8 | < 10 | inactive | CC1Nc2c(-c3cccs3)cc(Cl)cc2S(=O)(=O)N1 (stereo not given) | 
9 | 80 | inactive | CC1Nc2c(-c3ccco3)cc(Cl)cc2S(=O)(=O)N1 (stereo not given) | 
10 | 358 | inactive | CC1Nc2c(-c3ccoc3)cc(Cl)cc2S(=O)(=O)N1 (stereo not given) | Drug uptake [3]: Not Active; Drug uptake [4]: Active; concentration [5]: 8 µM; Drug uptake [6]: Not Active; concentration at 40 min [7]: 37 µM; EC50 [8]: 1.3 µM
11 | < 10 | inactive | Nc1cccc(-c2cc(Cl)cc3c2NCNS3(=O)=O)c1 | 
12 | 214 | inactive | CC1Nc2c(-c3ccsc3)cc(Cl)cc2S(=O)(=O)N1 (stereo not given) | 
